Among the data in patent US9707233B2, “Heterocyclylamines as PI3K inhibitors” (Incyte Corporation, priority 2011, dated 2017) are IC50 values, retold here.

The target of the experiment is PI3Kδ (p110δ/p85α) (Homo sapiens (Human), UniProt O00329). The experiment in a line: PI3Kδ scintillation proximity assay (Example A3). It counts as biochemical. The note with it: 20 μM ATP, 20 μM PIP2, 4 nM PI3Kδ; read-out: PI3Kδ SPA IC50. As for the experimental part: [γ-^33P]ATP (10 mCi/mL) was purchased from Perkin-Elmer (Waltham, Mass.). […] PI3Kδ (p110δ/p85α) was purchased from Millipore (Bedford, Mass.). ATP, MgCl2, DTT, EDTA, MOPS and CHAPS were purchased from Sigma-Aldrich (St. Louis, Mo.). Wheat Germ Agglutinin (WGA) YSi SPA Scintillation Beads was purchased from GE healthcare life sciences (Piscataway, N.J.).
Chain of PI3Kδ (p110δ/p85α) (O00329 whole entry): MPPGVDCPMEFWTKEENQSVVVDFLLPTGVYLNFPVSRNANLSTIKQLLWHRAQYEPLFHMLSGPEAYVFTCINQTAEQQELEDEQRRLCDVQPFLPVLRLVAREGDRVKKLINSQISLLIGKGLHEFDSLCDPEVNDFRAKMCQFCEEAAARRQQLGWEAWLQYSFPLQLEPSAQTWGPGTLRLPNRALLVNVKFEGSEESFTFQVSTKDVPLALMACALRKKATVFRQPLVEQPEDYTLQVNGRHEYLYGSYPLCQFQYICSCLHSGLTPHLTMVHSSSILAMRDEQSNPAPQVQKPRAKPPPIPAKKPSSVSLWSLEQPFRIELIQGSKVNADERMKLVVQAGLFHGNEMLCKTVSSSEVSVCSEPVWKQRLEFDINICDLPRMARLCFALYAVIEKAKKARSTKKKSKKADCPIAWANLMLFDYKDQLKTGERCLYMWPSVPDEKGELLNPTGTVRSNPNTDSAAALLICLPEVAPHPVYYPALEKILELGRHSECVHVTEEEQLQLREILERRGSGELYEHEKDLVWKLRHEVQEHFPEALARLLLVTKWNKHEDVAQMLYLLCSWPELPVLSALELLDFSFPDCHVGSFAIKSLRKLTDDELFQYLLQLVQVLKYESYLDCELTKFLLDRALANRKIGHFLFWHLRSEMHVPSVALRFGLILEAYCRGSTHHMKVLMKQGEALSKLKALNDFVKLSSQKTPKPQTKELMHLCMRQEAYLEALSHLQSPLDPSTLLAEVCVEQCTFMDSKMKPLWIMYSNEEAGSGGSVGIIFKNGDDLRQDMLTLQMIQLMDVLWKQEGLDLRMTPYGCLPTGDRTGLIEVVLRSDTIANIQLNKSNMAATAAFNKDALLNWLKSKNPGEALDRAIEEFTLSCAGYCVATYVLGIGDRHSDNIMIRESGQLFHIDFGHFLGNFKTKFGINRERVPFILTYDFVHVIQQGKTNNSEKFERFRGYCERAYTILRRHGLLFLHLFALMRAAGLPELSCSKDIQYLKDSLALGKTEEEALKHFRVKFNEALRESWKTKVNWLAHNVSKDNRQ
Chain of PI3Kδ (p110δ/p85α) (P27986 whole entry partner): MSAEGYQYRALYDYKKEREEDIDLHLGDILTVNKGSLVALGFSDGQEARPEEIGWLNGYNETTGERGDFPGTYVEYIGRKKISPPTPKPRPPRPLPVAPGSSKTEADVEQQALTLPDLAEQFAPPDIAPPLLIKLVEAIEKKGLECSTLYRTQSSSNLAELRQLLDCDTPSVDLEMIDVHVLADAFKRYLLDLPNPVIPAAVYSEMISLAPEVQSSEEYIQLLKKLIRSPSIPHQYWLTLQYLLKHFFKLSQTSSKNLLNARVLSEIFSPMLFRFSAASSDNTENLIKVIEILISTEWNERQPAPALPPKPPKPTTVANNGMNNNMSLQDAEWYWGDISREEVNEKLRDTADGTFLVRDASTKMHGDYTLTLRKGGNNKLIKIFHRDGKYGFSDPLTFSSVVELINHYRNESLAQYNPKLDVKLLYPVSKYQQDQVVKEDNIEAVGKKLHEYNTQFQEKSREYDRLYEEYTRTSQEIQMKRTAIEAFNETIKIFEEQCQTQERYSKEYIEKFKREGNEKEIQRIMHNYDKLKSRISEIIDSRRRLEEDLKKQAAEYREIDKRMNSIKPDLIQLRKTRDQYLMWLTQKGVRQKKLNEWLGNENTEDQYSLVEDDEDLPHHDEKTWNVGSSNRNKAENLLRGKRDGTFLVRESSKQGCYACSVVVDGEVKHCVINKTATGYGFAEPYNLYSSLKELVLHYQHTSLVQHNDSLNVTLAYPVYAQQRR
The kinase reaction was conducted in polystyrene 384-well matrix white plate from Thermo Fisher Scientific in a final volume of 25 μL. Inhibitors were first diluted serially in DMSO and added to the plate wells before the addition of other reaction components. The final concentration of DMSO in the assay was 0.5%. The PI3K assays were carried out at room temperature in 20 mM MOPS, pH 6.7, 10 mM MgCl2, 5 mM DTT and CHAPS 0.03%. Reactions were initiated by the addition of ATP, the final reaction mixture consisted of 20 μM PIP2, 20 μM ATP, 0.2 μCi [γ-^33P]ATP, 4 nM PI3Kδ. […] 25 mM EDTA, 400 μM ATP. The final concentration of SPA beads was 1.0 mg/mL. After the plate sealing, plates were shaken overnight at room temperature and centrifuged at 1800 rpm for 10 minutes, the radioactivity of the product was determined by scintillation counting on Topcount (Perkin-Elmer). IC50 determination was performed by fitting the curve of percent control activity versus the log of the inhibitor concentration using the GraphPad Prism 3.0 software.
(SPA uses beads or plates that emit light when radiolabelled molecules are held near them.)
By IC50 is commonly meant the midpoint of a concentration-inhibition curve. Turning to `CCOc1c(C(C)n2nc(-c3cnc(N)nc3)c3c(N)ncnc32)cc(Cl)c(C)c1-c1ccc(C(=O)N(C)C)nc1` (racemic) [Example 58, 5-(3-{1-[4-amino-3-(2-aminopyrimidin-5-yl)-1H-pyrazolo[3,4-d]pyrimidin-1-yl]ethyl}-5-chloro-2-ethoxy-6-methylphenyl)-N,N-dimethylpyridine-2-carboxamide tris(trifluoroacetate)], the IC50 is at most 10 nM. As for `CCOc1c(C(C)n2nc(-c3ccncc3)c3c(N)ncnc32)cc(Cl)c(C)c1-c1ccc(C(=O)N(C)C)nc1` (racemic) [Example 60, 5-{3-[1-(4-amino-3-pyridin-4-yl-1H-pyrazolo[3,4-d]pyrimidin-1-yl)ethyl]-5-chloro-2-ethoxy-6-methylphenyl}-N,N-dimethylpyridine-2-carboxamide tris(trifluoroacetate)], the IC50 is at most 10 nM. Take `CCOc1c(C(C)n2nc(-c3cccnc3)c3c(N)ncnc32)cc(Cl)c(C)c1-c1ccc(C(=O)N(C)C)nc1` (racemic) [Example 61, 5-{3-[1-(4-amino-3-pyridin-3-yl-1H-pyrazolo[3,4-d]pyrimidin-1-yl)ethyl]-5-chloro-2-ethoxy-6-methylphenyl}-N,N-dimethylpyridine-2-carboxamide tris(trifluoroacetate)]: the IC50 was at most 10 nM. Regarding `CCOc1c(C(C)n2nc(-c3cncc(C(=O)N(C)C)c3)c3c(N)ncnc32)cc(Cl)c(C)c1-c1ccc(C(=O)N(C)C)nc1` (racemic) [Example 62, 5-{3-[1-(4-amino-3-{5-[(dimethylamino)carbonyl]pyridin-3-yl}-1H-pyrazolo[3,4-d]pyrimidin-1-yl)ethyl]-5-chloro-2-ethoxy-6-methylphenyl}-N,N-dimethylpyridine-2-carboxamide tris(trifluoroacetate)], the IC50 was at most 10 nM. Take `COc1c(C(C)n2nc(C)c3c(N)ncnc32)cc(Cl)c(F)c1C1CN(CC(C)(C)O)C1` (racemic) [Example 70, 1-(3-{3-[1-(4-Amino-3-methyl-1H-pyrazolo[3,4-d]pyrimidin-1-yl)ethyl]-5-chloro-6-fluoro-2-methoxyphenyl}azetidin-1-yl)-2-methylpropan-2-ol]: the IC50 is at most 10 nM. With `COc1c(C(C)n2nc(C(F)F)c3c(N)ncnc32)cc(C#N)c(F)c1C1CN(CCO)C1` (racemic) [Example 78, 5-{1-[4-Amino-3-(difluoromethyl)-1H-pyrazolo[3,4-d]pyrimidin-1-yl]ethyl}-2-fluoro-3-[1-(2-hydroxyethyl)azetidin-3-yl]-4-methoxybenzonitrile], the IC50 is at most 10 nM.

Take `CCOc1c(C(C)n2nc(CC)c3c(N)ncnc32)cc(Cl)c(C)c1-c1ccc(C(=O)N(C)C)nc1` (racemic) [Example 81, 5-{3-[1-(4-Amino-3-ethyl-1H-pyrazolo[3,4-d]pyrimidin-1-yl)ethyl]-5-chloro-2-ethoxy-6-methylphenyl}-N,N-dimethylpyridine-2-carboxamide]: the IC50 was 50 to 200 nM. Turning to `CCOc1c(C(C)n2nc(CO)c3c(N)ncnc32)cc(Cl)c(C)c1-c1ccc(C(=O)N(C)C)nc1` (racemic) [Example 83, 5-(3-{1-[4-Amino-3-(hydroxymethyl)-1H-pyrazolo[3,4-d]pyrimidin-1-yl]ethyl}-5-chloro-2-ethoxy-6-methylphenyl)-N,N-dimethylpyridine-2-carboxamide bis(trifluoroacetate)], the IC50 is at most 10 nM. The same measure for `CCOc1c(C(C)n2nc(CNC)c3c(N)ncnc32)cc(Cl)c(C)c1-c1ccc(C(=O)N(C)C)nc1` (racemic) [Example 84, 5-[3-(1-{4-Amino-3-[(methylamino)methyl]-1H-pyrazolo[3,4-d]pyrimidin-1-yl}ethyl)-5-chloro-2-ethoxy-6-methylphenyl]-N,N-dimethylpyridine-2-carboxamide tris(trifluoroacetate)]: 50 to 200 nM; for `CCOc1c(C(C)n2nc(CN(C)C)c3c(N)ncnc32)cc(Cl)c(C)c1-c1ccc(C(=O)N(C)C)nc1` (racemic) [Example 85, 5-[3-(1-{4-Amino-3-[(dimethylamino)methyl]-1H-pyrazolo[3,4-d]pyrimidin-1-yl}ethyl)-5-chloro-2-ethoxy-6-methylphenyl]-N,N-dimethylpyridine-2-carboxamide tris(trifluoroacetate)]: 50 to 200 nM; for `CCOc1c(C(C)n2nc(CF)c3c(N)ncnc32)cc(Cl)c(C)c1-c1ccc(C(=O)N(C)C)nc1` (racemic) [Example 86, 5-(3-{1-[4-Amino-3-(fluoromethyl)-1H-pyrazolo[3,4-d]pyrimidin-1-yl]ethyl}-5-chloro-2-ethoxy-6-methylphenyl)-N,N-dimethylpyridine-2-carboxamide bis(trifluoroacetate)]: at most 10 nM. The same measure for `CCOc1c(C(C)n2nc(C)c3c(N)ncnc32)cc(Cl)c(C)c1C1CN(CCO)C1` (racemic) [Example 95, 2-(3-{3-[1-(4-Amino-3-methyl-1H-pyrazolo[3,4-d]pyrimidin-1-yl)ethyl]-5-chloro-2-ethoxy-6-methylphenyl}azetidin-1-yl)ethanol bis(trifluoroacetate)]: at most 10 nM; for `COc1c(C(C)n2nc(-c3cnn(C)c3)c3c(N)ncnc32)cc(Cl)c(C)c1C1CN(CC#N)C1` (racemic) [Example 125, [3-(3-{1-[4-Amino-3-(1-methyl-1H-pyrazol-4-yl)-1H-pyrazolo[3,4-d]pyrimidin-1-yl]ethyl}-5-chloro-2-methoxy-6-methylphenyl)azetidin-1-yl]acetonitrile bis(trifluoroacetate)]: at most 10 nM; for `CCOc1c(C(C)n2nc(C)c3c(N)ncnc32)cc(Cl)c(F)c1C1CN(C)C1` (racemic) [Example 145, 1-{1-[5-Chloro-2-ethoxy-4-fluoro-3-(1-methylazetidin-3-yl)phenyl]ethyl}-3-methyl-1H-pyrazolo[3,4-d]pyrimidin-4-amine]: at most 10 nM. For the compound `CCOc1c(C(C)n2nc(C)c3c(N)ncnc32)cc(Cl)c(F)c1C1CN(CC)C1` (racemic) [Example 146, 1-{1-[5-Chloro-2-ethoxy-3-(1-ethylazetidin-3-yl)-4-fluorophenyl]ethyl}-3-methyl-1H-pyrazolo[3,4-d]pyrimidin-4-amine], the IC50 is at most 10 nM. `CCOc1c(C(C)n2nc(C(F)F)c3c(N)ncnc32)cc(Cl)c(F)c1C1CN(C(C)C)C1` (racemic) [Example 150, 1-{1-[5-Chloro-2-ethoxy-4-fluoro-3-(1-isopropylazetidin-3-yl)phenyl]ethyl}-3-(difluoromethyl)-1H-pyrazolo[3,4-d]pyrimidin-4-amine]: the IC50 was at most 10 nM.

For the compound `CCOc1c(C(C)n2nc(C(F)F)c3c(N)ncnc32)cc(Cl)c(F)c1C1CN(C)C1` (racemic) [Example 151, 1-{1-[5-Chloro-2-ethoxy-4-fluoro-3-(1-methylazetidin-3-yl)phenyl]ethyl}-3-(difluoromethyl)-1H-pyrazolo[3,4-d]pyrimidin-4-amine], the half-inhibitory concentration (IC50) was at most 10 nM. On to `CCOc1c(C(C)n2nc(C(F)F)c3c(N)ncnc32)cc(Cl)c(F)c1C1CN(CCO)C1` (racemic) [Example 152, 2-[3-(3-{-1-[4-Amino-3-(difluoromethyl)-1H-pyrazolo[3,4-d]pyrimidin-1-yl]ethyl}-5-chloro-2-ethoxy-6-fluorophenyl)azetidin-1-yl]ethanol], for which the IC50 was at most 10 nM.
